Experimental data from patent US8247211B2, “Glycopeptide antibiotics” (American Cyanamid Company, priority 2001, dated 2012).
≈ marks a conversion by molar mass, not a printed value.

How the values were obtained:
Assay in all cases: In vitro antibacterial evaluation: minimum inhibitory concentration (MIC), broth dilution method
Format in all cases: cell-based
[1] = tested on: Escherichia coli; settings: 18 hours at 35° C.
Outline: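 NCCLS M7-A2 broth dilution with Mueller-Hinton II, testing 64-0.06 μg/mL antibiotic against 5×10^5 CFU/mL inocula. Test strains include recent methicillin-, penicillin- or vancomycin-resistant clinical isolates. MIC is the lowest concentration preventing growth.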

[2] = tested on: Staphylococcus sp.
Outline: (§1)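 Broth dilution per NCCLS M7-A2 in Muller-Hinton II […], inoculum 5×10^5 CFU/mL, antibiotic tested over 64-0.06 μg/mL. MIC is taken as the lowest concentration that inhibits growth. Panel includes recent clinical isolates resistant to methicillin, penicillin and/or vancomycin.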

[3] = tested on: Streptococcus sp.; settings: 18 hours at 35° C.
Outline: as §1

[4] = tested on: Enterococcus sp.; settings: 18 hours at 35° C.
Outline: as §1

[5] = broth dilution, inoculum 5×10^5 CFU/mL

N=C1NCC(C(O)C2NC(=O)C(Cc3ccc(OC4OC(CO)C(OC5OC6COC(c7ccccc7)OC6C(O)C5O)C(O)C4O)cc3)NC(=O)C(CC3CCCCC3)NC(=O)CNC(=O)C(CO)NC(=O)C(C(O)C3CNC(=N)N3C3OC(CO)C(O)C(O)C3O)NC2=O)N1 (stereo not drawn) [Example 199, Cyclo[3-cyclohexylalanyl-O-[4-O-(4,6-O-benzylidenehexopyranosyl)hexopyranosyl]tyrosyl-3-(2-iminoimidazolidin-4-yl)seryl-3-(3-hexopyranosyl-2-iminoimidazolidin-4-yl)-seryl-serylglycyl]]
MIC Escherichia coli (ATCC 25922) ([1]; Escherichia coli (ATCC 25922)): 64 µg/mL (≈ 46.5 µM) | MIC Escherichia coli (GC 4559) ([1]; Escherichia coli (GC 4559)): 32 µg/mL (≈ 23.3 µM) | MIC Escherichia coli (GC 4560) ([1]; Escherichia coli (GC 4560)): 1 µg/mL (≈ 0.727 µM) | MIC Staphylococcus aureus (ATCC 29213) ([2]; strain ATCC 29213): 2 µg/mL (≈ 1.45 µM) | MIC Staphylococcus aureus (GC 1131) ([2]; strain GC 1131): 2 µg/mL (≈ 1.45 µM) | MIC Staphylococcus aureus (GC 3051) ([2]; strain GC 3051): 1 µg/mL (≈ 0.727 µM) | MIC Staphylococcus aureus (GC 3053) ([2]; strain GC 3053): 2 µg/mL (≈ 1.45 µM) | MIC Staphylococcus aureus (GC 4541) ([2]; strain GC 4541): 2 µg/mL (≈ 1.45 µM) | MIC Staphylococcus aureus (GC 4542) ([2]; strain GC 4542): 1 µg/mL (≈ 0.727 µM) | MIC Staphylococcus aureus-SMITH (GC 4543) ([2]; strain GC 4543): 1 µg/mL (≈ 0.727 µM) | MIC Staphylococcus aureus (GC 4544) ([2]; strain GC 4544): 2 µg/mL (≈ 1.45 µM) | MIC Staphylococcus aureus (GC 4545) ([2]; strain GC 4545): 1 µg/mL (≈ 0.727 µM) | MIC Staphylococcus haemolyticus (GC 4546) ([2]; strain GC 4546): 1 µg/mL (≈ 0.727 µM) | MIC Coagulase Negative Staphylococcus (GC 4547) ([2]; strain GC 4547): 2 µg/mL (≈ 1.45 µM) | MIC Coagulase Negative Staphylococcus (GC 4548) ([2]; strain GC 4548): 0.5 µg/mL (≈ 0.364 µM) | MIC Coagulase Negative Staphylococcus (GC 4549) ([2]; strain GC 4549): 0.5 µg/mL (≈ 0.364 µM) | MIC Coagulase Negative Staphylococcus (GC 4551) ([2]; strain GC 4551): 1 µg/mL (≈ 0.727 µM) | MIC Streptococcus agalactiae (GC 4564) ([3]; Streptococcus agalactiae (GC 4564)): <0.12 µg/mL | MIC Streptococcus pneumoniae (ATCC 6301) ([3]; Streptococcus pneumoniae (ATCC 6301)): <0.12 µg/mL | MIC Streptococcus pneumoniae (GC 1894) ([3]; Streptococcus pneumoniae (GC 1894)): <0.12 µg/mL | MIC Streptococcus pneumoniae (GC 4565) ([3]; Streptococcus pneumoniae (GC 4565)): <0.12 µg/mL | MIC Streptococcus pyogenes (GC 4563) ([3]; Streptococcus pyogenes (GC 4563)): <0.12 µg/mL | MIC Streptococcus agalactiae (GC 4564) [3, 5]: <0.12 µg/mL | MIC Streptococcus pneumoniae (ATCC 6301) [3, 5]: <0.12 µg/mL | MIC Streptococcus pneumoniae (GC 1894) [3, 5]: <0.12 µg/mL | MIC Streptococcus pneumoniae (GC 4565) [3, 5]: <0.12 µg/mL | MIC Streptococcus pyogenes (GC 4563) [3, 5]: <0.12 µg/mL | MIC Enterococcus avium (GC 4558) ([4]; Enterococcus avium (GC 4558)): 2 µg/mL (≈ 1.45 µM) | MIC Enterococcus faecalis (ATCC 29212) ([4]; Enterococcus faecalis (ATCC 29212)): 4 µg/mL (≈ 2.91 µM) | MIC Enterococcus faecalis (GC 2242) ([4]; Enterococcus faecalis (GC 2242)): 2 µg/mL (≈ 1.45 µM) | MIC Enterococcus faecalis (GC 2691) ([4]; Enterococcus faecalis (GC 2691)): 4 µg/mL (≈ 2.91 µM) | MIC Enterococcus faecalis (GC 3059) ([4]; Enterococcus faecalis (GC 3059)): 4 µg/mL (≈ 2.91 µM) | MIC Enterococcus faecalis (GC 4552) ([4]; Enterococcus faecalis (GC 4552)): 4 µg/mL (≈ 2.91 µM) | MIC Enterococcus faecalis (GC 4553) ([4]; Enterococcus faecalis (GC 4553)): 4 µg/mL (≈ 2.91 µM) | MIC Enterococcus faecalis (GC 4554) ([4]; Enterococcus faecalis (GC 4554)): 4 µg/mL (≈ 2.91 µM) | MIC Enterococcus faecalis (GC 6189) ([4]; Enterococcus faecalis (GC 6189)): 2 µg/mL (≈ 1.45 µM) | MIC Enterococcus faecium (GC 2243) ([4]; Enterococcus faecium (GC 2243)): 4 µg/mL (≈ 2.91 µM) | MIC Enterococcus faecium (GC 4556) ([4]; Enterococcus faecium (GC 4556)): 4 µg/mL (≈ 2.91 µM) | MIC Enterococcus faecium (GC 4557) ([4]; Enterococcus faecium (GC 4557)): 2 µg/mL (≈ 1.45 µM) | MIC Enterococcus avium (GC 4558) [4, 5]: 2 µg/mL (≈ 1.45 µM) | MIC Enterococcus faecalis (ATCC 29212) [4, 5]: 4 µg/mL (≈ 2.91 µM) | MIC Enterococcus faecalis (GC 2242) [4, 5]: 2 µg/mL (≈ 1.45 µM) | MIC Enterococcus faecalis (GC 2691) [4, 5]: 4 µg/mL (≈ 2.91 µM) | MIC Enterococcus faecalis (GC 3059) [4, 5]: 4 µg/mL (≈ 2.91 µM) | MIC Enterococcus faecalis (GC 4552) [4, 5]: 4 µg/mL (≈ 2.91 µM) | MIC Enterococcus faecalis (GC 4553) [4, 5]: 4 µg/mL (≈ 2.91 µM) | MIC Enterococcus faecalis (GC 4554) [4, 5]: 4 µg/mL (≈ 2.91 µM) | MIC Enterococcus faecalis (GC 6189) [4, 5]: 2 µg/mL (≈ 1.45 µM) | MIC Enterococcus faecium (GC 2243) [4, 5]: 4 µg/mL (≈ 2.91 µM) | MIC Enterococcus faecium (GC 4556) [4, 5]: 4 µg/mL (≈ 2.91 µM) | MIC Enterococcus faecium (GC 4557) [4, 5]: 2 µg/mL (≈ 1.45 µM)
